Format in all cases: cell-based
The test system of series [1] is Human STAT3 mRNA. Description: Human STAT3 mRNA dose response in T-24 cells, real-time PCR with PPS 199 (Table 18). The conditions noted are these: 16 hours, − decrease, + increase relative to untreated control. The method, boiled down: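 Bladder carcinoma T-24 cells transfected with oligonucleotide at 18.75, 37.5, 75 or 150 nM plus 3 ug/mL LIPOFECTIN per 100 nM, 16 h. STAT3 mRNA quantified by real-time PCR (PPS 199), normalized with Ribogreen; change given relative to untreated cells.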

Series [2] has as its system Human STAT3 mRNA. Description: Human STAT3 mRNA dose response in A549 cells, real-time PCR with PPS 199 (Table 20). The settings on record: 16 hours, LIPOFECTIN, − decrease, + increase relative to untreated control cells. The protocol:
An additional dose-response experiment was preformed in A549 cells. A549 cells were treated with 18.75, 37.5, 75, or 150 nM of oligonucleotide mixed with 3 ug/mL LIPOFECTIN per 100 nM oligonucleotide as described by other examples herein. Control oligonucleotides used were ISIS 129686 (SEQ ID NO: 394) and ISIS 129690 (SEQ ID NO: 393). Untreated cells served as controls. Following 16 hours of treatment, RNA was prepared from cells for subsequent real-time PCR analysis.
Human STAT3 mRNA expression levels were quantitated by real-time PCR using primer probe set PPS 199 and gene target quantities were normalized using Ribogreen as described in other examples herein. A “−” or “+” designation in the dose response results indicates a decrease or increase of STAT 3 mRNA expression, respectively, relative to untreated control cells.

Series [3] has as its system Human STAT3 mRNA. Description: Human STAT3 mRNA dose response in T-24 cells, real-time PCR with PPS 2033 (Table 19). The conditions noted are these: 16 hours, − decrease, + increase relative to untreated control. Summed up:
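T-24 cells got oligonucleotide at 18.75, 37.5, 75 or 150 nM with LIPOFECTIN (3 ug/mL per 100 nM oligo) for 16 h. STAT3 mRNA was quantified by real-time RT-PCR with primer-probe set PPS 2033, normalized to RiboGreen total RNA, and expressed as change versus untreated cells.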

From patent publication US20050074879A1, “Antisense oligonucleotide modulation of STAT3 expression” (priority 2000, published 2005) come the findings set out here.

Oligonucleotides are written 5' to 3', each unit as a sugar letter and its base; * is a phosphorothioate linkage, no mark a phosphodiester; rarer units and linkages stand in square brackets, end groups in braces. Plain capitals give the bases only. e = 2'-O-(2-methoxyethyl) (MOE); [5mC] = 5-methylcytosine; d = 2'-deoxy (DNA)

On to “337348 (antisense eT*e[5mC]*e[5mC]*eG*eA*dA*dT*dG*d[5mC]*d[5mC]*dT*d[5mC]*d[5mC]*dT*d[5mC]*e[5mC]*eT*eT*eG*eG) [compound 337348]”, for which the “Percent change of STAT3 expression using PPS 199” value in series [1] (18.75 nM oligonucleotide) was −61%; in series [1] (37.5 nM oligonucleotide), −77%; in series [1] (75 nM oligonucleotide) it was −82%; in series [1] (150 nM oligonucleotide), −86%. For the same substance, the “Percent change of STAT3 expression in A549 cells using PPS 199” value in series [2] (18.75 nM oligonucleotide) was −26%; in series [2] (37.5 nM oligonucleotide) it was −43%; in series [2] (75 nM oligonucleotide) it was −55%; in series [2] (150 nM oligonucleotide), −77%. Moreover, the “Percent change of STAT3 expression using PPS 2033” value (“Percent change … using PPS 2033” for short) is listed as −53% in series [3] (18.75 nM oligonucleotide), −76% in series [3] (37.5 nM oligonucleotide), −83% in series [3] (75 nM oligonucleotide) and −86% in series [3] (150 nM oligonucleotide).
For the substance “337332 (antisense eG*eA*eA*eG*e[5mC]*d[5mC]*d[5mC]*dT*dT*dG*d[5mC]*d[5mC]*dA*dG*d[5mC]*e[5mC]*eA*eT*eG*eT) [compound 337332]”, the “Percent change of STAT3 expression using PPS 199” value in series [1] (18.75 nM oligonucleotide) was −63%; in series [1] (37.5 nM oligonucleotide), −79%; in series [1] (75 nM oligonucleotide), −87%; in series [1] (150 nM oligonucleotide), −92%. The “Percent change of STAT3 expression in A549 cells using PPS 199” value in series [2] (18.75 nM oligonucleotide) is −31%; in series [2] (37.5 nM oligonucleotide), −61%; in series [2] (75 nM oligonucleotide), −77%; in series [2] (150 nM oligonucleotide) it was −87%. Further, the “Percent change … using PPS 2033” value in series [3] (18.75 nM oligonucleotide) was −66%; in series [3] (37.5 nM oligonucleotide), −79%; in series [3] (75 nM oligonucleotide) it was −85%; in series [3] (150 nM oligonucleotide), −91%.
As for “337333 (antisense eA*eA*eG*eG*eA*dG*dA*dA*dG*d[5mC]*d[5mC]*d[5mC]*dT*dT*dG*e[5mC]*e[5mC]*eA*eG*e[5mC]) [compound 337333]”, the “Percent change of STAT3 expression using PPS 199” value in series [1] (18.75 nM oligonucleotide) is listed as −48%; in series [1] (37.5 nM oligonucleotide), −73%; in series [1] (75 nM oligonucleotide) it was −82%; in series [1] (150 nM oligonucleotide) it was −88%. In addition, the “Percent change of STAT3 expression in A549 cells using PPS 199” value in series [2] (18.75 nM oligonucleotide) is −8%; in series [2] (37.5 nM oligonucleotide) it was −39%; in series [2] (75 nM oligonucleotide), −59%; in series [2] (150 nM oligonucleotide) it was −75%. Moreover, the “Percent change … using PPS 2033” value in series [3] (18.75 nM oligonucleotide) is listed as −46%; in series [3] (37.5 nM oligonucleotide), −70%; in series [3] (75 nM oligonucleotide) it was −82%; in series [3] (150 nM oligonucleotide), −90%.
